In assay [1] the test system is T47D. The assay is described as follows: Antiproliferative activity against human T47D cells after 72 hrs by EZ-Cytox colorimetric assay. Format: functional, cell-based.
Assay [2] has as its target DNA topoisomerase 2-alpha (Homo sapiens) (UniProt P11388). The assay is described as follows: Inhibition of recombinant human topoisomerase 2alpha assessed as relaxation of supercoiled plasmid pBR322 DNA at 100 uM by agarose gel electrophoresis (reference value: […]%).
Assay [3] concerns HCT-15. The assay is described as follows: Antiproliferative activity against human HCT-15 cells after 72 hrs by EZ-Cytox colorimetric assay. Particulars: HCT-15, 72 h. In kind it is functional, cell-based.
The test system of assay [4] is HeLa. The assay can be described thus: Antiproliferative activity against human HeLa cells after 72 hrs by EZ-Cytox colorimetric assay. Format: functional, cell-based.
Assay [5] concerns the target T1, DNA topoisomerase 1 (Homo sapiens) (UniProt P11387).
T1 sequence (whole entry): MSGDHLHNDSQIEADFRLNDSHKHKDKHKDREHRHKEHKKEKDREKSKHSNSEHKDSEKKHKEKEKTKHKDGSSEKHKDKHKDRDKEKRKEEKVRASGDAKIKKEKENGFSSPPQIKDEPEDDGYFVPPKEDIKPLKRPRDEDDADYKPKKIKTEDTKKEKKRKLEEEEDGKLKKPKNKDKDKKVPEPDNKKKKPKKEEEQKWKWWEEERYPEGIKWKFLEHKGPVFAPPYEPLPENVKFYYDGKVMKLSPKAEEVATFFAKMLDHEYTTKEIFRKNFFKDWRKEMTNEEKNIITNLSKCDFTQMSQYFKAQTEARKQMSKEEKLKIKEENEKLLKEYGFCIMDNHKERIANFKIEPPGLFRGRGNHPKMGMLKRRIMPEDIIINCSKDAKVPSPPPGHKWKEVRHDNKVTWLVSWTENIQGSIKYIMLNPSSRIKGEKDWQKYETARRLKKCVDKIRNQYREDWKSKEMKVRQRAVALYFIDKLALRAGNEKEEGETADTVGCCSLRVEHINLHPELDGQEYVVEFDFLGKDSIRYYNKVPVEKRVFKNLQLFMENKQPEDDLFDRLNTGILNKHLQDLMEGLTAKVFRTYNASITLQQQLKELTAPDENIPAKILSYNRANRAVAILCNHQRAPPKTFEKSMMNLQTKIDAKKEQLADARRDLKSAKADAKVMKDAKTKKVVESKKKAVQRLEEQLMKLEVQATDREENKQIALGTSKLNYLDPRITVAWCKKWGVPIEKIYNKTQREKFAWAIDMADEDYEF
The assay is described as follows: Inhibition of recombinant human topoisomerase 1 assessed as relaxation of supercoiled plasmid pBR322 DNA at 100 uM by agarose gel electrophoresis (reference value: 90.6%).

Assay [6] relates to DU-145. The assay is described as follows: Antiproliferative activity against human DU-145 cells after 72 hrs by EZ-Cytox colorimetric assay. Format: functional, cell-based. Conditions: DU-145, 72 h.
Assay [7] addresses DNA topoisomerase 2-alpha (Homo sapiens) (UniProt P11388). The assay can be described thus: Inhibition of recombinant human topoisomerase 2alpha assessed as relaxation of supercoiled plasmid pBR322 DNA at 100 uM by agarose gel electrophoresis (reference value: 82.2%).
Assay [8] shares this target. The assay is described as follows: Inhibition of recombinant human topoisomerase 2alpha assessed as relaxation of supercoiled plasmid pBR322 DNA at 20 uM by agarose gel electrophoresis (reference value: 48.4%).
Assay [9] concerns the target T1, DNA topoisomerase 1 (Homo sapiens). The assay is described as follows: Inhibition of recombinant human topoisomerase 1 assessed as relaxation of supercoiled plasmid pBR322 DNA at 20 uM by agarose gel electrophoresis (reference value: 40.4%).
Assay [10] shares this target. The assay can be described thus: Inhibition of recombinant human topoisomerase 1 assessed as relaxation of supercoiled plasmid pBR322 DNA at 100 uM by agarose gel electrophoresis (reference value: 83.2%).
The target is the same in assay [11]. The assay is described as follows: Inhibition of recombinant human topoisomerase 1 assessed as relaxation of supercoiled plasmid pBR322 DNA at 20 uM by agarose gel electrophoresis (reference value: 38.3%).
Assay [12] concerns the target DNA topoisomerase 2-alpha (Homo sapiens) (UniProt P11388). The assay can be described thus: Inhibition of recombinant human topoisomerase 2alpha assessed as relaxation of supercoiled plasmid pBR322 DNA at 100 uM by agarose gel electrophoresis (reference value: 81%).
In assay [13] the target is T1, DNA topoisomerase 1 (Homo sapiens). The assay is described as follows: Inhibition of recombinant human topoisomerase 1 assessed as relaxation of supercoiled plasmid pBR322 DNA at 100 uM by agarose gel electrophoresis (reference value: 81.9%).

IC50 and inhibition data for 21 molecules are collected here from ChEMBL document CHEMBL5143515, “Identification of new halogen-containing 2,4-diphenyl indenopyridin-5-one derivative as a boosting agent for the anticancer responses of clinically available topoisomerase inhibitors” (Eur J Med Chem, 2022).

Usually IC50 stands for the midpoint of a concentration-inhibition curve. A higher IC50 goes with weaker potency in that assay. What is called inhibition is the change of the read-out against control, counted positive when it falls.

Structures are written as SMILES. Counter-ions that a name gives are not always drawn. Bounds are passed on as bounds.

DNA topoisomerase 2-alpha (Homo sapiens), sequence (P11388 whole entry): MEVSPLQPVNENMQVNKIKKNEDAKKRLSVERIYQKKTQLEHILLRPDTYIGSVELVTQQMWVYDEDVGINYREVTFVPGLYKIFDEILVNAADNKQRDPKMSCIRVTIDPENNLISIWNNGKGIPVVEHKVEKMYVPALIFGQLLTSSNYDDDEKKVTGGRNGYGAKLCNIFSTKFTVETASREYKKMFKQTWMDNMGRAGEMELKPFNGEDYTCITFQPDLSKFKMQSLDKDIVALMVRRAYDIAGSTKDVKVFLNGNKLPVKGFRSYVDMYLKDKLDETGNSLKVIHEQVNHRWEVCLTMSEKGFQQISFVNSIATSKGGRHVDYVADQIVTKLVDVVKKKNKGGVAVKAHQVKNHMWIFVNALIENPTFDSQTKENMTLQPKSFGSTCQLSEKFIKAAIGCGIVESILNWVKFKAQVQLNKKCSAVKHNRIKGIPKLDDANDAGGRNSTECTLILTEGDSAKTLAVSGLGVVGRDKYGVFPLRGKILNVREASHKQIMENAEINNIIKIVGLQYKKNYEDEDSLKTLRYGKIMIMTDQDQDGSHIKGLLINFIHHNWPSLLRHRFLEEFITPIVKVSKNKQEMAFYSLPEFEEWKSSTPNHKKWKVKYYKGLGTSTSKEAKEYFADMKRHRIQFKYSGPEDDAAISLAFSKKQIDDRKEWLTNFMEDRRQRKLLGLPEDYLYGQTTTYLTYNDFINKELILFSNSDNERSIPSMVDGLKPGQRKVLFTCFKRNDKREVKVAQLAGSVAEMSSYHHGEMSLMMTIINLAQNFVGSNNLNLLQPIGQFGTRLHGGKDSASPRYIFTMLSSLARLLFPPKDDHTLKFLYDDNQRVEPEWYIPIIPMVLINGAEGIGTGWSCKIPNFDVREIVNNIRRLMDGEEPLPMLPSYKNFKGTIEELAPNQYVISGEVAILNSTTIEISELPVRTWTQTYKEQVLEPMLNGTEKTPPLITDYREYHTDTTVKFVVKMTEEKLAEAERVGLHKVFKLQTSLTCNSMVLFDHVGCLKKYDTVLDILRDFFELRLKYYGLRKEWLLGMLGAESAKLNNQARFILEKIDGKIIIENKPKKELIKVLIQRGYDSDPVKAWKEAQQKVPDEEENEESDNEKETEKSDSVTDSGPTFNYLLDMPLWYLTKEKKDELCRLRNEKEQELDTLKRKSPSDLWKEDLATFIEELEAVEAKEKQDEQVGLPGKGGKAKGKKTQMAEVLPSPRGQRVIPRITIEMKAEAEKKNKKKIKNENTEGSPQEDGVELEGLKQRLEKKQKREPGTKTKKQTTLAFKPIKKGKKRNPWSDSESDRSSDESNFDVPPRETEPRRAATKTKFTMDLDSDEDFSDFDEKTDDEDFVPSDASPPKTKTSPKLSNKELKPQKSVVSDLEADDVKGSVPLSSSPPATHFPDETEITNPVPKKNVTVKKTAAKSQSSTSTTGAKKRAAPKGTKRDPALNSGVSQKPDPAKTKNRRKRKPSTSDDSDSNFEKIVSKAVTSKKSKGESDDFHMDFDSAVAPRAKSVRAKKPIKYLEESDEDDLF

For `OC1c2ccccc2-c2nc(-c3ccccc3F)cc(-c3ccccc3)c21` (stereo not given), the IC50 in [1], in assay [3], in [4] and in [6] was over 50 µM in each case. The inhibition in assay [2] stood at 0%; in assay [5], 6.7%.
As to `OC1c2ccccc2-c2nc(-c3ccc(F)cc3)cc(-c3ccccc3)c21` (stereo not given), the IC50 in assay [1], in assay [3], in [4] and in [6] was over 50 µM each time. Moreover, the inhibition in assay [2] was 0%; in assay [5] it was 7.1%.
With `O=C1c2ccccc2-c2nc(-c3ccccc3Br)cc(-c3ccccc3)c21`, the 50% inhibitory concentration (IC50) is over 50 µM in [1], over 50 µM in assay [3], over 50 µM in assay [4] and 8.42 µM in assay [6]. For the same molecule, the inhibition in [7] amounted to 93.4%; in assay [8], 60.4%; in assay [9] it was 0%; in [10] it was 82.9%.
Regarding `O=C1c2ccccc2-c2nc(-c3ccc(Cl)cc3)cc(-c3ccccc3)c21`, the IC50 was over 50 µM in [1], over 50 µM in assay [3], over 50 µM in assay [4] and 5.76 µM in assay [6]. Moreover, the inhibition in [7] amounted to 91.3%; in assay [8], 60%; in [9], 0%; in [10], 80.4%.
For `O=C1c2ccccc2-c2nc(-c3cccc(Cl)c3)cc(-c3ccccc3)c21`, the IC50 is over 50 µM in assay [1], 23.4 µM in [3], over 50 µM in assay [4] and 14.4 µM in assay [6]. For the same molecule, the inhibition in assay [7] turned out to be 98.1%; in [8], 89.2%; in assay [9], 0%; in assay [10] it was 85.7%.
On to `O=C1c2ccccc2-c2nc(-c3ccccc3OC(F)(F)F)cc(-c3ccccc3)c21`, for which the figures for the inhibition in assay [11], in [12] and in assay [13] were 0%, 0.6% and 35%, respectively. Also, the IC50 in assay [1] is over 50 µM; in assay [3], 14.7 µM; in assay [4] it was over 50 µM; in assay [6] it was 10.7 µM.
Turning to `OC1c2ccccc2-c2nc(-c3ccc(Br)cc3)cc(-c3ccccc3)c21` (stereo not given), the IC50 in assay [1] was 28.7 µM; in assay [3], over 50 µM; in assay [4], over 50 µM; in assay [6], 2.11 µM. The values for the inhibition in [2] and in [5] were 0% and 10.5%, respectively.
With `O=C1c2ccccc2-c2nc(-c3ccccc3Cl)cc(-c3ccccc3)c21`, the IC50 in assay [1], in [3], in [4] and in [6] was over 50 µM throughout. In addition, the inhibition in assay [7] was determined as 93.3%; in [8], 71.8%; in [9], 0%; in assay [10] it was 66.7%.
As to `OC1c2ccccc2-c2nc(-c3ccc(Cl)cc3)cc(-c3ccccc3)c21` (stereo not given), the IC50 in [1] was over 50 µM; in assay [3], over 50 µM; in assay [4], over 50 µM; in [6], 35.1 µM. Besides, the inhibition is 0% in assay [2] and 6.3% in assay [5].
On to `OC1c2ccccc2-c2nc(-c3cccc(F)c3)cc(-c3ccccc3)c21` (stereo not given), for which the IC50 in assay [1], in assay [3], in assay [4] and in [6] was over 50 µM each time. In addition, the inhibition in assay [2] was 0%; in assay [5], 6.1%.
With `OC1c2ccccc2-c2nc(-c3ccccc3Br)cc(-c3ccccc3)c21` (stereo not given), the IC50 in [1] was found to be 1.55 µM; in assay [3], 7.03 µM; in [4], 16 µM; in [6], 6.48 µM. Further, the inhibition came to 0.2% in [2] and 12.6% in assay [5].
For the molecule `O=C1c2ccccc2-c2nc(-c3cccc(F)c3)cc(-c3ccccc3)c21`, the IC50 in [1], in [3], in assay [4] and in [6] was over 50 µM throughout. Besides, the inhibition came out at 0% in [7], 0% in [9] and 34.2% in [10].
Regarding `O=C1c2ccccc2-c2nc(-c3ccc(F)cc3)cc(-c3ccccc3)c21`, the IC50 is over 50 µM in [1], 33.3 µM in [3], over 50 µM in assay [4] and 20.7 µM in assay [6]. Besides, the inhibition in assay [7] is 36.9%; in assay [8] it was 2.5%; in assay [9] it was 0%; in [10], 34.7%.
Consider `OC1c2ccccc2-c2nc(-c3ccccc3Cl)cc(-c3ccccc3)c21` (stereo not given), for which the IC50 is 1.48 µM in [1], 3.37 µM in assay [3], 10.4 µM in assay [4] and 0.41 µM in assay [6]. Also, the inhibition worked out at 0% in [2] and 7.6% in assay [5].
Take `OC1c2ccccc2-c2nc(-c3cccc(Br)c3)cc(-c3ccccc3)c21` (stereo not given): the IC50 was over 50 µM in [1], over 50 µM in [3], over 50 µM in assay [4] and 43.2 µM in assay [6]. Moreover, the results for the inhibition in assay [2] and in [5] were 0% and 8.6%, respectively.
Regarding `COc1cccc2c1C(=O)c1c(O)c3c(c(O)c1C2=O)C[C@@](O)(C(=O)CO)C[C@@H]3O[C@H]1C[C@H](N)[C@H](O)[C@H](C)O1` [DOXORUBICIN HYDROCHLORIDE], the IC50 was determined as 1.48 µM in assay [1], 136 µM in assay [3], 1.36 µM in assay [4] and 2.99 µM in assay [6].
For `OC1c2ccccc2-c2nc(-c3cccc(Cl)c3)cc(-c3ccccc3)c21` (stereo not given), the IC50 in assay [1], in assay [3], in [4] and in [6] was over 50 µM each time. Further, the inhibition in [2] was determined as 0%; in assay [5], 7.6%.
`O=C1c2ccccc2-c2nc(-c3cccc(Br)c3)cc(-c3ccccc3)c21`: the IC50 in [1] was determined as 28 µM; in assay [3], 17.9 µM; in assay [4], 20.2 µM; in assay [6] it was 9.48 µM. Moreover, the inhibition was determined as 83.8% in assay [7], 5.3% in assay [8], 0% in assay [9] and 82.9% in assay [10].
As to `O=C1c2ccccc2-c2nc(-c3ccccc3F)cc(-c3ccccc3)c21`, the IC50 in assay [1] was over 50 µM; in [3], 49.2 µM; in assay [4], over 50 µM; in assay [6], over 50 µM. Besides, the inhibition in [7] was 0%; in assay [10], 26.7%.
In the case of `O=C1c2ccccc2-c2nc(-c3cccc(OC(F)(F)F)c3)cc(-c3ccccc3)c21`, the inhibition in [11] stood at 8.5%; in assay [12], 0.5%; in [13] it was 100%. For the same molecule, the half-maximal inhibitory concentration (IC50) in assay [1] is 16.8 µM; in [3], 27.6 µM; in assay [4] it was over 50 µM; in [6], 17.8 µM.
With `O=C1c2ccccc2-c2nc(-c3ccc(OC(F)(F)F)cc3)cc(-c3ccccc3)c21`, the inhibition in assay [11] came to 3.7%; in assay [12], 6.5%; in assay [13], 34.3%. Moreover, the IC50 in assay [1] is 2.69 µM; in [3], 9.7 µM; in [4] it was 35.5 µM; in assay [6] it was 9.63 µM.
